Laboratory results published in patent US20250250299A1, “MACROCYCLIC IMMUNOMODULATORS” (Bristol-Myers Squibb Company, priority 2022, published 2025).
Where a SMILES comes first, the peptide text is derived from it. Bridges are numbered along the chain shown (N, C = ends). [ ]: non-standard residue; d: D form. The star is where a group is joined. X1 = O=C(O)CCCCCCCCCCCCCCCCC(=O)N[C@@H](CCC(=O)NCCOCCOCCOCCOCCOCCOCCOCCOCCOCCOCCOCCn1cc(C*)nn1)C(=O)O; Phe(4-CH2NH2) = NCc1ccc(C[C@H](N)C(=O)O)cc1; Bip = N[C@@H](Cc1ccc(-c2ccccc2)cc1)C(=O)O; Phe(3-Me) = Cc1cccc(C[C@H](N)C(=O)O)c1; C12 diacid = O=C(O)CCCCCCCCCCC(=O)*; 4Pal = N[C@@H](Cc1ccncc1)C(=O)O; Cha = N[C@@H](CC1CCCCC1)C(=O)O; Carboxymethyl = O=C(O)C*; NMeA = CN[C@@H](C)C(=O)O; Orn = NCCC[C@H](N)C(=O)O; Dab = NCC[C@H](N)C(=O)O; Dap = NC[C@H](N)C(=O)O; AEEA = NCCOCCOCC(=O)O

Molecular target: T1, human PD-1 (Jurkat-PD-1 cells; binding of PE-labeled human PD-L1-Ig) (Homo sapiens, UniProt Q15116)
T1 construct: expressed in transfected cells; host or cells: Jurkat (Jurkat-PD-1 / Jurkat-hPD-1)
T1 sequence (Q15116 25-288): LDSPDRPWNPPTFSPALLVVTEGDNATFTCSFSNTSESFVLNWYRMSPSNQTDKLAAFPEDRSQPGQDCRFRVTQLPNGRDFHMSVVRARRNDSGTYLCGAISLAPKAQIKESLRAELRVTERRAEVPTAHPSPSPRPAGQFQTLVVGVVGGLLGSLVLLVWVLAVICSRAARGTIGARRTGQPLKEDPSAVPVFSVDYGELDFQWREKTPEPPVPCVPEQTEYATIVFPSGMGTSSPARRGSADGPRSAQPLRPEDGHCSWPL
Experiment: Jurkat-PD-1 Cell Binding High-Content Screening Assay
Conditions: Jurkat cell line over-expressing human PD-1; compound 2 h at 37° C., then PE-labeled PD-L1-Ig 20 nM final, 1 hour; read-out: Jurkat hPD1 PDL1 IC50
Method: The ability of the compounds of formula (I) to bind to PD-1 was investigated using a Jurkat-PD-1 Cell Binding High-Content Screening Assay.
Phycoerythrin (PE) was covalently linked to the Ig epitope tag of human PD-L1-Ig and fluorescently-labeled PD-L1-Ig was used for binding studies with a Jurkat cell line over-expressing human PD-1 (Jurkat-PD-1). Briefly, 8×10^3 Jurkat-hPD-1 cells were seeded into 384 well plates in 20 μl of DIVEM supplemented with 10% fetal calf serum. 100 nl of compound was added to cells followed by incubation at 37° C. for 2 h. Then, 5 μl of PE-labeled PD-L1-Ig (20 nM final), diluted in DiVEM supplemented with 10 fetal calf serum. After 1 hour incubation, cells were fixed with […] in dPBS containing 10 µg/mL Hoechst 33342 and then washed 3× in 100 μl dPB S. Data was collected and processed using a Cell Insight NXT High Content Imager and associated software.

For CC(C)C[C@H]1NC(=O)[C@H](C)N(C)C(=O)[C@H](C(C)C)NC(=O)[C@H](Cc2ccc(-c3ccccc3)cc2)NC(=O)[C@H](C(C)C)NC(=O)[C@H](Cc2c[nH]c3ccccc23)NC(=O)[C@H](CC(=O)O)NC(=O)[C@H](Cc2ccncc2)NC(=O)[C@H](Cc2ccc(CNC(=O)CCCCCCCCCCC(=O)O)cc2)NC(=O)CSC[C@@H](C(N)=O)NC(=O)[C@H](CO)NC(=O)[C@H](C(C)C)NC(=O)[C@H](CC2CCCCC2)NC(=O)[C@H](CC(N)=O)NC1=O [Compound 1037] ({CH2CO}-[Phe(4-CH2NH2)](C12 diacid)[4Pal]DWV[Bip]V[NMeA][dL]N[Cha]VSC-NH2; thioether N-14), which IC50 is on record?
The IC50 was 0.12 µM.

With Cc1cccc(C[C@@H]2NC(=O)[C@H](CC(=O)O)NC(=O)[C@H](Cc3ccc(OCc4cn(CCOCCOCCOCCOCCOCCOCCOCCOCCOCCOCCOCCNC(=O)CC[C@H](NC(=O)CCCCCCCCCCCCCCCCC(=O)O)C(=O)O)nn4)cc3)NC(=O)[C@H](Cc3c[nH]cn3)NC(=O)CSC[C@@H](C(=O)N[C@@H](CCN)C(N)=O)NC(=O)[C@H](CCC(=O)O)NC(=O)[C@H](C(C)C)NC(=O)[C@H](CC3CCCCC3)NC(=O)[C@H](CCN)NC(=O)[C@@H](CC(C)C)NC(=O)[C@H](CCCN)NC(=O)[C@H](Cc3ccc(OCC(=O)O)cc3)NC(=O)[C@H](Cc3ccc(-c4ccccc4)cc3)NC(=O)[C@H](Cc3ccc(OCC(=O)O)cc3)NC2=O)c1 [Compound 1010] ({CH2CO}-HY(X1)D[Phe(3-Me)]Y(Carboxymethyl)[Bip]Y(Carboxymethyl)[Orn][dL][Dab][Cha]VEC[Dab]-NH2; thioether N-14) as the compound, how does the IC50 read?
The IC50 was 0.63 µM.

Which IC50 does the source give for Cc1cccc(C[C@@H]2NC(=O)[C@H](CC(=O)O)NC(=O)[C@H](Cc3ccc(OCC(=O)O)cc3)NC(=O)[C@H](CCNC(=O)CCCCCCCCCCC(=O)O)NC(=O)CSC[C@@H](C(N)=O)NC(=O)[C@H]([C@@H](C)O)NC(=O)[C@H](C(C)C)NC(=O)[C@H](CC3CCCCC3)NC(=O)[C@H](CCN)NC(=O)[C@@H](CC(C)C)NC(=O)[C@H](CCCN)NC(=O)[C@H](Cc3ccc(OCC(=O)O)cc3)NC(=O)[C@H](Cc3ccc(-c4ccccc4)cc3)NC(=O)[C@H](Cc3ccc(O)cc3)NC2=O)c1 [Compound 1034] ({CH2CO}-[Dab](C12 diacid)Y(Carboxymethyl)D[Phe(3-Me)]Y[Bip]Y(Carboxymethyl)[Orn][dL][Dab][Cha]VTC-NH2; thioether N-14) here?
Its IC50 is 0.17 µM.

With CC(C)C[C@H]1NC(=O)[C@H](C)N(C)C(=O)[C@H](C(C)C)NC(=O)[C@H](Cc2ccc(-c3ccccc3)cc2)NC(=O)[C@H](C(C)C)NC(=O)[C@H](Cc2c[nH]c3ccccc23)NC(=O)[C@H](CC(=O)O)NC(=O)[C@H](Cc2ccncc2)NC(=O)[C@H](Cc2ccc(OCC(=O)O)cc2)NC(=O)CSC[C@@H](C(N)=O)NC(=O)[C@H](CO)NC(=O)[C@H](C(C)C)NC(=O)[C@H](CC2CCCCC2)NC(=O)[C@H](CCCCNC(=O)CCCCCCCCCCC(=O)O)NC1=O [Compound 1044] ({CH2CO}-Y(Carboxymethyl)[4Pal]DWV[Bip]V[NMeA][dL]K(C12 diacid)[Cha]VSC-NH2; thioether N-14) as the compound, how does the IC50 read?
The IC50 was 0.36 µM.

For Cc1cccc(C[C@@H]2NC(=O)[C@H](CC(=O)O)NC(=O)[C@H](Cc3ccc(OCC(=O)O)cc3)NC(=O)[C@H](CN)NC(=O)CSC[C@@H](C(=O)N[C@@H](CCN)C(=O)NCCOCCOCC(N)=O)NC(=O)[C@H](COCc3cn(CCOCCOCCOCCOCCOCCOCCOCCOCCOCCOCCOCCNC(=O)CC[C@H](NC(=O)CCCCCCCCCCCCCCCCC(=O)O)C(=O)O)nn3)NC(=O)[C@H](C(C)C)NC(=O)[C@H](CC3CCCCC3)NC(=O)[C@H](CCN)NC(=O)[C@@H](CC(C)C)NC(=O)[C@H](CCCN)NC(=O)[C@H](Cc3ccc(OCC(=O)O)cc3)NC(=O)[C@H](Cc3ccc(-c4ccccc4)cc3)NC(=O)[C@H](Cc3ccc(OCC(=O)O)cc3)NC2=O)c1 [Compound 1041] ({CH2CO}-[Dap]Y(Carboxymethyl)D[Phe(3-Me)]Y(Carboxymethyl)[Bip]Y(Carboxymethyl)[Orn][dL][Dab][Cha]VS(X1)C[Dab][AEEA]-NH2; thioether N-14), which IC50 is on record?
Its IC50 is 0.14 µM.
